Assay in all cases: growth of human tumour cells (NCI), 48 h
Assay [1] deals with SN12C renal.
The test system of assay [2] is LOX IMVI melanoma.
Assay [3] relates to DU-145 prostate.
The test system of assay [4] is HCT-116 colon.
Assay [5] concerns M14 melanoma.
For assay [6], the system named is HCT-15 colon.
Assay [7] deals with SNB-19 CNS.
In assay [8] the test system is SR leukemia.
In assay [9] the test system is 786-0 renal.
Assay [10] deals with RPMI-8226 leukemia.

SMILES strings stand for the structures. Several values for one entry are separate records, joined by “and”; a condition that tells them apart may be missing. Identical values can stand only once.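 All cell lines were grown in 96-well plates and treated with compound for 48 hours. GI50 is the concentration that inhibits growth by half. The concentration for full growth arrest is given as TGI.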 Bounds are passed on as bounds.

For the molecule `CCOC(=O)/C(=C/CC/C(C)=C/CC/C(C)=C/CCc1ccoc1)CC(=O)N1CCCCC1`, the GI50 in [1] is 3.79 µM; in [2], 4.43 µM; in assay [3], 7.76 µM; in [4], 2.66 µM; in [5], 2.95 µM; in assay [6], 3.01 µM. Besides, the GI50 in assay [7] is 4.05 µM; in assay [8], 3.11 µM; in [9], 5.29 µM; in [10] it was 1.87 µM. Besides, the TGI in assay [1] stood at 14.8 µM; in [2] it was 15.8 µM; in assay [3], 43.4 µM; in [4] it was 10.2 µM; in [5], 10.2 µM; in [6], 12.5 µM. Further, the TGI in assay [7] stood at 41.3 µM; in [8] it was 16 µM; in assay [9] it was 18.8 µM; in assay [10] it was 5.47 µM.

`CCN(C(=O)N1CCN(c2cc3c(cc2F)c(=O)c(C(=O)O)cn3C2CC2)CC1)c1nc(-c2ccccc2)cs1`: the GI50 in assay [1] was 3.44 µM; in assay [2] it was 1.39 µM; in [3], 3.31 µM; in assay [4], 2.64 µM; in assay [5], 3.16 µM; in assay [6], 2.9 µM. Also, the GI50 is 3.94 µM in [7], 1.54 µM in assay [8], 2.47 µM in [9] and 2.41 µM in assay [10]. Also, the TGI in assay [1] was more than 100 µM; in assay [2] it was 9.09 µM; in assay [3] it was more than 100 µM; in assay [4], more than 100 µM; in [5], more than 100 µM; in assay [6], more than 100 µM. Besides, the TGI in assay [7] was more than 100 µM; in [8], 9.92 µM; in assay [9], 15.5 µM; in [10], 8.75 µM.

On to `Oc1ccc(NC(=S)Nc2ccccc2)cc1`, for which the GI50 in assay [1], in assay [2], in [3], in assay [4], in assay [5] and in assay [6] was more than 100 µM in each case. The GI50 in assay [7], in assay [8], in assay [9] and in assay [10] was more than 100 µM in each case. Also, the TGI in assay [1], in [2], in assay [3], in assay [4], in [5] and in [6] was more than 100 µM in each case. Moreover, the TGI in assay [7], in assay [8], in [9] and in assay [10] was more than 100 µM in each case.

Take `O=C(Nc1ccc(OS(=O)(=O)c2ccc(F)cc2)cc1)C12CC3CC(CC(C3)C1)C2`: the GI50 in assay [1] was more than 43.6 µM; in assay [2], more than 27.5 µM; in assay [3] it was 13.9 µM; in assay [4] it was 0.929 µM; in [5], 8.12 µM; in assay [6], 0.558 µM. For the same molecule, the GI50 in assay [7] was 15.9 µM; in assay [8] it was 2.03 µM; in [9] it was 8.33 µM; in [10] it was 0.403 µM. Further, the TGI in [1] was more than 100 µM; in assay [2] it was more than 100 µM; in [3], 99.2 µM; in [4], more than 100 µM; in [5], more than 100 µM; in assay [6] it was more than 100 µM. Also, the TGI in assay [7] was 74.4 µM; in [8], more than 100 µM; in assay [9], 44.5 µM; in assay [10], more than 100 µM.

For the molecule `CC[C@@]1(O)C(=O)OCc2c1cc1n(c2=O)Cc2cc3cc(Cl)ccc3nc2-1`, the GI50 is 0.00207 µM in assay [1]; 0.00191 µM in assay [2]; 0.00491 µM in [3]; 0.00467 µM in assay [5]; 0.0559 µM and 0.106 µM in assay [6]; 0.00345 µM in assay [7]. Further, the GI50 was 0.00232 µM and 0.0143 µM in assay [8]; 0.00519 µM in [9]; 0.0132 µM and 0.0334 µM in assay [10]. For the same molecule, the TGI in assay [1] was 0.12 µM and 0.243 µM; in assay [5] it was 0.0853 µM and 0.0476 µM; in [6] it was 10.5 µM; in assay [7] it was 0.866 µM and 3.82 µM; in assay [9] it was 0.327 µM.

Take `OCC#CCOCC#Cc1ccccc1C#CCOCC#CCO`: the GI50 in assay [1] is 26.7 µM; in assay [3], 48.4 µM; in assay [4] it was 16.6 µM; in assay [5], 20.2 µM; in assay [6], 20.9 µM; in [8] it was 18.5 µM. The values for the GI50 in assay [9] and in assay [10] were 34 µM and 13.7 µM, respectively. Besides, the TGI in [1] was 80.9 µM; in assay [3], more than 100 µM; in assay [4] it was 44 µM; in assay [5], 49.9 µM; in assay [6], more than 100 µM; in [8], more than 100 µM. For the same molecule, the figures for the TGI in assay [9] and in [10] were more than 100 µM and 35.3 µM, respectively.

With `C=C1CCC2CC1C(C(=O)c1c[nH]c3ccccc13)=NC2(C)C` (stereo not given), the TGI in [1], in [2], in assay [3], in [4], in [5] and in assay [6] was more than 100 µM throughout. In addition, the TGI in [7], in [8], in assay [9] and in assay [10] was more than 100 µM throughout.

As to `NC(N)=NN=c1c(=O)c2ccccc2c1=O`, the GI50 in assay [1] was 1.81 µM; in assay [2], 1.58 µM; in [3], 1.9 µM; in assay [4], 2.01 µM; in assay [5], 2 µM; in [6], 1.88 µM. For the same molecule, the GI50 is 1.72 µM in assay [7], 2.4 µM in assay [8], 19.1 µM in assay [9] and 5.7 µM in assay [10]. Moreover, the TGI in [1] was 3.83 µM; in assay [2] it was 3.25 µM; in [3], 3.39 µM; in assay [4] it was 4.18 µM; in [5] it was 3.46 µM; in [6] it was 3.84 µM. Besides, the TGI in assay [7] came out at 3.25 µM; in assay [8], 5.92 µM; in assay [9] it was 33.3 µM; in [10] it was 29.6 µM.

The values are drawn from PubChem BioAssay (NCI).
